{"source": "ChEMBL document CHEMBL1129469", "about": "“Nonpeptide angiotensin II receptor antagonists: the next generation in antihypertensive therapy” (J Med Chem, 1996)", "key": {"Oryctolagus cuniculus [1]": {"species": "Oryctolagus cuniculus", "experiment": "Inhibitory activity against angiotensin II type 1 induced contractions in rabbit aorta", "assay_type": "functional"}, "[2]": {"target": "T1, Angiotensin II receptor (AT-1) type-1 (Rattus norvegicus, UniProt P29089+P25095)", "T1 sequence (P29089 whole entry)": "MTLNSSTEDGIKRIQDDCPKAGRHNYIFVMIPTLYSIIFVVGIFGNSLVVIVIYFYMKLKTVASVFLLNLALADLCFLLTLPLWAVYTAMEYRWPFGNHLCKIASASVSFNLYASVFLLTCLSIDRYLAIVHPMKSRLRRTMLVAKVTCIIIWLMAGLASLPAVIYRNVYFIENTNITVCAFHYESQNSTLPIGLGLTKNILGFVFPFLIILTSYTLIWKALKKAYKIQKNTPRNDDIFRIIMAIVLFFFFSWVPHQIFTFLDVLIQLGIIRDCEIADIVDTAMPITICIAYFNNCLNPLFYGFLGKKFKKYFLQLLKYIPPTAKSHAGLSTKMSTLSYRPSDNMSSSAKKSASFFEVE", "T1 sequence (P25095 whole entry)": "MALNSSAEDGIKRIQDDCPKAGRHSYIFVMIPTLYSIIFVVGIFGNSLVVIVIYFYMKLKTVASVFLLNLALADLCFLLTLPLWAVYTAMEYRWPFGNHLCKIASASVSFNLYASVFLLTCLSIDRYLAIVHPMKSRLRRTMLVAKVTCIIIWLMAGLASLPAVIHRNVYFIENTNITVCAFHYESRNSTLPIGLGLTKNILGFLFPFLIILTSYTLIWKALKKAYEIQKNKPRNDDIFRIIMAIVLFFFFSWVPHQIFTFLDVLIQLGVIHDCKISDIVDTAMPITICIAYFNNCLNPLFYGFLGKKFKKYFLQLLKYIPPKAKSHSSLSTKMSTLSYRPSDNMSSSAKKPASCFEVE", "experiment": "Inhibitory activity against Angiotensin II receptor, type 1 in rat aortic membrane", "assay_type": "cell membranes"}, "Rattus norvegicus [3]": {"tested_on": "Rattus norvegicus", "experiment": "Effective dose required for inhibition of Ang II-induced pressor response in conscious rats", "assay_type": "functional"}, "[4]": {"target": "T2, Type-1 angiotensin II receptor (Cavia porcellus, UniProt Q9WV26)", "T2 sequence (Q9WV26 whole entry)": "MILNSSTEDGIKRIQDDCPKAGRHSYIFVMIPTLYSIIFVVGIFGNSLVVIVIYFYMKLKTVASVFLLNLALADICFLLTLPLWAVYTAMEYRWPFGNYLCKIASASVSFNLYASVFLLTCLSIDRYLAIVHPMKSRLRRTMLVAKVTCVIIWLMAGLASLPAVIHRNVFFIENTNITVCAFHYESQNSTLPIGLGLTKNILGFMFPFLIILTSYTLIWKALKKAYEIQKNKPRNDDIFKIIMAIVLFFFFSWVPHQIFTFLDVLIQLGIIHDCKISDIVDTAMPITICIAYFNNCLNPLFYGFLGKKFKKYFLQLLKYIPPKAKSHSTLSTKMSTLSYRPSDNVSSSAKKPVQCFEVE", "experiment": "In vitro antagonistic potency against Angiotensin II receptor, type 1 in guinea pig adrenal membrane", "assay_type": "functional, cell membranes"}, "Rattus norvegicus [5]": {"tested_on": "Rattus norvegicus", "experiment": "Percent inhibition was evaluated to inhibit Ang II pressor response in conscious rats at oral dose 1 mg/kg", "assay_type": "functional"}, "Rattus norvegicus [6]": {"species": "Rattus norvegicus", "experiment": "Effective dose required for lowering blood pressure in renal hypertensive rats (RHR)", "assay_type": "functional"}, "Rattus norvegicus [7]": {"tested_on": "Rattus norvegicus", "experiment": "Oral effective dose required for inhibition of Ang II pressor response in conscious rat", "assay_type": "functional"}, "Canis familiaris": {"tested_on": "Canis familiaris", "experiment": "Oral effective dose required for inhibition of Ang II pressor response in conscious dog", "assay_type": "functional", "conditions": "Canis lupus familiaris"}, "Rhesus monkey": {"tested_on": "Rhesus monkey", "experiment": "Oral effective dose required for inhibition of Ang II pressor response in conscious rhesus monkey", "assay_type": "functional, Cercopithecidae", "conditions": "Macaca mulatta"}, "Oryctolagus cuniculus [8]": {"species": "Oryctolagus cuniculus", "experiment": "Compound was tested for its antagonistic activity against angiotensin II-induced contractions in rabbit aorta", "assay_type": "functional"}, "[9]": {"target": "T1, Angiotensin II receptor (AT-1) type-1", "experiment": "Binding affinity was evaluated towards Angiotensin II receptor, type 1 in rat adrenal membrane", "assay_type": "cell membranes"}, "[10]": {"target": "T3, Type-1 angiotensin II receptor (Oryctolagus cuniculus, UniProt P34976)", "T3 sequence (P34976 whole entry)": "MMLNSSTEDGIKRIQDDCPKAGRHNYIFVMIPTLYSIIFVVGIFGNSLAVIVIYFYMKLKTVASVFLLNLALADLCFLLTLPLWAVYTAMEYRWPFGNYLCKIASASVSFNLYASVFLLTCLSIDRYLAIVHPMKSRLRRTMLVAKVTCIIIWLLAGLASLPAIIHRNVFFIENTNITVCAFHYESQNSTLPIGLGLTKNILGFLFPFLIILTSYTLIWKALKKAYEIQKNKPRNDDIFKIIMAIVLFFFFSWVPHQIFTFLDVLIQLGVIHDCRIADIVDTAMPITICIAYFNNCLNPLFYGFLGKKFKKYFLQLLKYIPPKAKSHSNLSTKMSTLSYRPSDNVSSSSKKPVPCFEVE", "experiment": "Inhibitory activity was evaluated against angiotensin II type 1 rabbit aorta", "assay_type": "tissue-based"}, "Rattus norvegicus [11]": {"tested_on": "Rattus norvegicus", "experiment": "Intravenous effective dose against Ang II-induced pressor responses in conscious rats", "assay_type": "functional"}, "[12]": {"target": "T1, Angiotensin II receptor (AT-1) type-1", "experiment": "In vitro antagonistic potency against Angiotensin II receptor, type 1 in rat adrenal cortex", "assay_type": "functional, tissue-based"}, "[13]": {"target": "T4, Type-2 angiotensin II receptor (Homo sapiens, UniProt P50052)", "T4 sequence (P50052 whole entry)": "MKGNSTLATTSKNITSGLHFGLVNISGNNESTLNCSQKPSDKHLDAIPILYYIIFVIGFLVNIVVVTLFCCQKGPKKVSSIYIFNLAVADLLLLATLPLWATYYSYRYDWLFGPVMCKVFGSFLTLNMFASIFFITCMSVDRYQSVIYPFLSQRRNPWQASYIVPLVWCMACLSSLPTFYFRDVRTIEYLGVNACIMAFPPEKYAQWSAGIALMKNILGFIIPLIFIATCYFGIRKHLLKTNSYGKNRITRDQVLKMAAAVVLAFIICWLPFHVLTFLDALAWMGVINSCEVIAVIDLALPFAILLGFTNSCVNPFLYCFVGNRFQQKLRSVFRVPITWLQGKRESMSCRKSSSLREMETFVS", "experiment": "Ki value was evaluated against Angiotensin II receptor, type 2"}, "Rattus norvegicus [14]": {"tested_on": "Rattus norvegicus", "experiment": "Intravenous effective dose required for lowering blood pressure in renal hypertensive rats (RHR)", "assay_type": "functional"}, "[15]": {"target": "T5, Type-1 angiotensin II receptor (Homo sapiens, UniProt P30556)", "T5 sequence (P30556 whole entry)": "T3 sequence (P34976 whole entry) with M2I, A49V, V254I, V270I, H272R, K311R, S349T, V353A", "experiment": "Ki value was evaluated against Angiotensin II receptor, type 1"}, "Rattus norvegicus [16]": {"tested_on": "Rattus norvegicus", "experiment": "Percent inhibition was evaluated against Ang II pressor in rats at dose 3 mg/kg, by oral administration", "assay_type": "functional"}, "[17]": {"target": "T5, Type-1 angiotensin II receptor", "experiment": "Inhibition of Angiotensin II receptor, type 1"}, "[18]": {"target": "T4, Type-2 angiotensin II receptor", "experiment": "Inhibition of Angiotensin II receptor, type 2"}}, "note": "Residue numbers refer to the chain shown, from its start."}
{"smiles": "CCOc1nc2cccc(C(=O)O)c2n1Cc1ccc(-c2ccccc2-c2nnn[nH]2)cc1", "values": [{"measurement": "IC50", "setting": "Oryctolagus cuniculus [1]", "result": 0.3, "unit": "nM"}]}
{"smiles": "CCCCC(=O)N(Cc1ccc(-c2ccccc2-c2nnn[nH]2)cc1)[C@H](C(=O)O)C(C)C", "values": [{"measurement": "IC50", "setting": "[2]", "result": 2.7, "unit": "nM"}]}
{"smiles": "CCc1cc2c(c(CC)n1)CCC(=O)N2Cc1ccc(-c2ccccc2-c2nnn[nH]2)cc1", "values": [{"measurement": "ED50", "setting": "Rattus norvegicus [3]", "result": 0.19, "unit": "mg/kg"}, {"measurement": "IC50", "setting": "[4]", "result": 3.8, "unit": "nM"}]}
{"smiles": "CCCCc1nc2ccc(NC(=O)N(C)C(C)C)cc2c(=O)n1Cc1ccc(-c2ccccc2-c2nn[nH]n2)cc1", "values": [{"measurement": "inhibition in vivo at 1 mg/kg", "setting": "Rattus norvegicus [5]", "result": 84, "unit": "%"}]}
{"smiles": "CCCCc1nc(Cl)c(CC(=O)OC)n1Cc1ccc(NC(=O)c2ccccc2C(=O)O)cc1", "values": [{"measurement": "ED30", "setting": "Rattus norvegicus [6]", "result": 11, "unit": "mg/kg"}]}
{"smiles": "CCc1cc(OCc2ccc(-c3ccccc3-c3nnn[nH]3)cc2)c2ccccc2n1", "values": [{"measurement": "IC50", "setting": "[4]", "result": 30, "unit": "nM"}]}
{"smiles": "CCc1nc2c(C)cc(C)nc2n1Cc1ccc(-c2ccccc2S(=O)(=O)NC(=O)c2ccccc2)cc1", "values": [{"measurement": "ED50", "setting": "Rattus norvegicus [7]", "result": 0.067, "unit": "mg/kg"}, {"measurement": "ED50", "setting": "Canis familiaris", "result": 0.035, "unit": "mg/kg"}, {"measurement": "ED50", "setting": "Rhesus monkey", "result": 0.1, "unit": "mg/kg"}]}
{"smiles": "CCCc1nc(C)n2[nH]c(=O)nc2c1Cc1ccc(-c2ccccc2-c2nnn[nH]2)cc1", "values": [{"measurement": "Kb", "setting": "Oryctolagus cuniculus [8]", "result": 0.29, "unit": "nM"}, {"measurement": "Ki", "setting": "[9]", "result": 24, "unit": "nM"}]}
{"smiles": "CCc1nc2c(CC)cn(Cc3ccc(-c4ccccc4-c4nn[nH]n4)cc3)n2n1", "values": [{"measurement": "IC50", "setting": "[10]", "result": 1.7, "unit": "nM"}]}
{"smiles": "CCCCc1nc(Cl)c(C(=O)O)n1Cc1cccc2c1ccn2-c1ccccc1-c1nn[nH]n1", "values": [{"measurement": "Kb", "setting": "Oryctolagus cuniculus [8]", "result": 0.068, "unit": "nM"}, {"measurement": "ED50", "setting": "Rattus norvegicus [11]", "result": 0.22, "unit": "µmol/kg"}, {"measurement": "Ki", "setting": "[12]", "result": 800, "unit": "nM"}]}
{"smiles": "CCCCCN(C(=O)NC)c1ccc2nc(CCCC)n(Cc3ccc(NC(=O)c4c(Cl)ccc(Cl)c4C(=O)O)cc3)c2c1", "values": [{"measurement": "Ki", "setting": "[13]", "result": 730, "unit": "nM"}, {"measurement": "ED30", "setting": "Rattus norvegicus [14]", "result": 2, "unit": "mg/kg"}, {"measurement": "Ki", "setting": "[15]", "result": 20, "unit": "nM"}]}
{"smiles": "CCCCCN(Cc1ccc(-c2ccccc2-c2nn[nH]n2)cc1)C(=O)N1CCN(C(=O)N(c2ccccc2)c2ccccc2)[C@H](C(=O)O)C1", "values": [{"measurement": "inhibition in vivo at 3 mg/kg", "setting": "Rattus norvegicus [16]", "result": 80, "unit": "%"}, {"measurement": "IC50", "setting": "[17]", "result": 15, "unit": "nM"}, {"measurement": "IC50", "setting": "[18]", "result": 180, "unit": "nM"}]}
